≈ marks a conversion by molar mass, not a printed value.
Key:
[1] = tested on: Human immunodeficiency virus 1; assay: Antiviral activity against HIV1 3B infected in human MT2 cells assessed as protection against viral infection by MTT method; format: functional, organism-based; conditions: Human immunodeficiency virus 1, 3B
[2] = tested on: Human immunodeficiency virus 1; assay: Antiviral activity against HIV1 3B harboring reverse transcriptase K103N/Y181C double mutant infected in human MT2 cells assessed as protection against viral infection by MTT method; format: functional, organism-based
[3] = tested on: Human immunodeficiency virus 1; assay: Antiviral activity against HIV1 3B harboring reverse transcriptase Y181C mutant infected in human MT2 cells assessed as protection against viral infection by MTT method; format: functional, organism-based
[4] = Cytotoxicity against human MT2 cells assessed as growth inhibition by MTT method; format: cell-based
[5] = Aqueous solubility of compound in pH 6.5 solution by shake flask method; format: physicochemical; conditions: aqueous solution pH 6.5, pH 6.5
[6] = Human immunodeficiency virus 1, 3B, MT2, read-out: EC50

| SMILES | EC50 [1] [µM] | EC50 [3, 6] [µM] | CC50 [4] [µM] | further results |
| --- | --- | --- | --- | --- |
| Cc1ccc(OCCn2ccc(=O)[nH]c2=O)c(Cc2ccccc2)c1 | 4.8 |  |  |  |
| COc1ccnc(Nc2ccc(Cl)c(Oc3ccccc3)c2)n1 | 2.5 |  |  |  |
| Cc1cc(Oc2ccccc2OCCn2ccc(=O)[nH]c2=O)c2cc(C#N)[nH]c2c1 | 0.01 |  |  | EC50 [2, 6]: 0.8 µM; EC50 [3]: Not Active |
| N#Cc1cc2c(Oc3ccccc3OCCn3ccc(=O)[nH]c3=O)cc(Cl)cc2o1 | 0.019 | 1.9 | > 100 | EC50 [2, 6]: 0.26 µM |
| N#Cc1cc2c(Oc3ccccc3OCCn3ccc(=O)[nH]c3=O)cccn2c1 | 0.00038 | 0.31 | > 100 | EC50 [2, 6]: 0.011 µM |
| N#Cc1ccc2c(Oc3ccccc3OCCn3ccc(=O)[nH]c3=O)cc(F)cc2c1 |  |  |  | solubility thermodynamic [5]: 9.1 µg/mL (≈ 21.8 µM) |
| N#Cc1ccc2c(Oc3ccc(F)cc3OCCn3ccc(=O)[nH]c3=O)cc(F)cc2c1 |  |  |  | solubility thermodynamic [5]: 82.9 µg/mL (≈ 190 µM) |
| CSc1ccnc(Nc2ccc(C#N)c(Oc3cccc(/C=C/C#N)c3)c2)n1 | 0.048 | 0.25 | 1.2 |  |
| CC(C)=CCOc1cc(Nc2ncnc3occc23)ccc1Cl | 0.005 |  | 17 |  |
| CC(C)=CCOc1cc(Nc2nccn3cccc23)ccc1Cl | 0.019 |  | 20 |  |
| CC(C)=CCOc1cc(Nc2nccc3cccn23)ccc1Cl | 0.13 |  | 17 |  |
| Cc1cc(/C=C/C#N)cc(Oc2cc(Nc3ncnc(C4CC4)n3)ccc2C)c1 | 0.0017 | 0.015 |  |  |
| Cc1cc(/C=C/C#N)cc(Oc2cc(Nc3ncnc(C4CC4)n3)ccc2Cl)c1 |  | 0.0049 |  |  |
| CC(C)=CCOc1cc(Nc2nccc3cc[nH]c23)ccc1Cl | 0.9 |  | 9.2 |  |
| Cc1ccnc2c1NC(=O)c1cccnc1N2C1CC1 [NEVIRAPINE] |  |  | > 100 | EC50 [2]: Not Active; EC50 [3]: Not Active |

Source: ChEMBL document CHEMBL4477247, “Computer-aided discovery of anti-HIV agents” (Bioorg Med Chem, 2016)
